ChEMBL document CHEMBL3400030, “Synthesis and biological evaluation of nonionic substrate mimics of UDP-Galp as candidate inhibitors of UDP galactopyranose mutase (UGM)” (Bioorg Med Chem Lett, 2015)

Tests used:
[1] = test system: Mycobacterium tuberculosis; test: Inhibition of Mycobacterium tuberculosis UGM assessed as conversion of UDP-Galf into UDP-Galp at 500 uM by HPLC method; design: scale not given: the % may be the effect or the level left
[2] = test system: Mycobacterium tuberculosis; test: Inhibition of Mycobacterium tuberculosis UGM assessed as inhibition of conversion of UDP-Galf into UDP-Galp at 500 uM by HPLC method

| Structure (SMILES) | Activity [1] [%] | inhibition [2] [%] |
| --- | --- | --- |
| O=c1ccn(C[C@@H](O)[C@@H](O)[C@H](O)[C@H](CO)O[C@H]2O[C@H](CO)[C@H](O)[C@H](O)[C@H]2O)c(=O)[nH]1 | 47 | 30 |
| O=c1ccn(C[C@@H](O)[C@@H](O)[C@H](O)[C@H](CO)O[C@@H]2O[C@H](CO)[C@H](O)[C@H](O)[C@H]2O)c(=O)[nH]1 | 39 | 28 |
